Here are results for 3 compounds from ChEMBL document CHEMBL3046892, “Sensitivity difference to insecticides of a riverine caddisfly, Cheumatopsyche brevilineata (Trichoptera: Hydropsychidae), depending on the larval stages and strains” (J Pestic Sci, 2009).

Each structure is given as a SMILES string. Converted amounts (≈) assume the structure as drawn.

Test [1] relates to Cheumatopsyche. The test is described as follows: Insecticidal activity against first-instar larvae of Cheumatopsyche brevilineata M after 48 hr. Type of test: functional, organism-based.
Test [2] relates to Cheumatopsyche. The test is described as follows: Insecticidal activity against fifth-instar larvae of Cheumatopsyche brevilineata M after 48 hr. Type of test: functional, organism-based.
Test [3] concerns Cheumatopsyche. Description: Insecticidal activity against fifth-instar larvae of Cheumatopsyche brevilineata K after 48 hr. The format is functional, organism-based.
Test [4] has as its system Cheumatopsyche. Description: Insecticidal activity against first-instar larvae of Cheumatopsyche brevilineata K after 48 hr. Type of test: functional, organism-based.
Test [5] concerns Cheumatopsyche. Description: Ratio of EC50 for fifth-instar larvae of Cheumatopsyche brevilineata K to EC50 for first instar larvae of Cheumatopsyche brevilineata K. Type of test: functional.
Test [6] concerns Cheumatopsyche. The test is described as follows: Ratio of EC50 for fifth-instar larvae of Cheumatopsyche brevilineata M to EC50 for first instar larvae of Cheumatopsyche brevilineata M. The format is functional.
Test [7] concerns Cheumatopsyche. Description: Insecticidal activity against first to fifth instar larvae of Cheumatopsyche brevilineata K after 48 hr. Type of test: functional, organism-based.

With `COP(=S)(OC)Oc1ccc([N+](=O)[O-])c(C)c1` [FENITROTHION], the EC50 in test [1] was determined as 0.00623 µg/mL (≈ 0.0225 µM); in test [2] it was 0.0265 µg/mL (≈ 0.0956 µM); in test [3] it was 0.741 µg/mL (≈ 2.67 µM); in test [4] it was 0.0261 µg/mL (≈ 0.0941 µM). Moreover, the “Ratio EC50” value in test [5] was found to be 28.4; in test [6], 4.3.
On to `CCC(C)c1ccccc1OC(=O)NC` (stereo not given) [FENOBUCARB], for which the 50% effective concentration (EC50) was 0.00948 µg/mL (≈ 0.0457 µM) in test [1], 0.0919 µg/mL (≈ 0.443 µM) in test [2], 0.291 µg/mL (≈ 1.4 µM) in test [3] and 0.00789 µg/mL (≈ 0.0381 µM) in test [4]. Also, the figures for the “Ratio EC50” value in test [5] and in test [6] were 36.9 and 10.3, respectively.
Turning to `O=[N+]([O-])/N=C1\NCCN1Cc1ccc(Cl)nc1` [IMIDACLOPRID], the EC50 was 0.00664 µg/mL (≈ 0.026 µM) in test [1], 0.0379 µg/mL (≈ 0.148 µM) in test [2] and 0.00654 µg/mL (≈ 0.0256 µM) in test [7].

The term EC50 denotes the concentration needed to bring the measured effect to its halfway point.
